From patent US20120214760A1, “TREATMENT OF URINARY TRACT INFECTIONS WITH ANTIBACTERIAL AMINOGLYCOSIDE COMPOUNDS” (Achaogen, Inc., priority 2009, published 2012)
Values after ≈ are worked out from the molar mass of the structure shown. Where two headings read alike, the source gives them in different places.

Legend:
Assay type in all cases: cell-based
[1] = system: E. coli ATCC 25922 (AECO001); test: MIC, CLSI broth microdilution; details: for MIC AECO001: Table 3; for MIC: Escherichia coli
How it was run: (§1)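 Broth microdilution per CLSI M7-A7, with serial two-fold compound dilutions in Mueller Hinton Broth mixed 1:1 with inoculum. Colonies from a previous-day agar plate were suspended in saline to a final 5×10^5 CFU/mL. Plates were incubated 20 hours at 35° C. in ambient air.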

[2] = system: S. marcescens ASMA003, ANT(2″) + AAC(6′); test: MIC, aminoglycoside resistant strain; details: Table 3
Protocol: (§2) Minimum inhibitory concentrations (MIC) were determined by reference Clinical and Laboratory Standards Institute (CLSI) broth microdilution methods per M7-A7 [2006]. Quality control ranges utilizing E. coli ATCC 25922, P. aeruginosa ATCC 27853 and S. aureus ATCC 29213, and interpretive criteria for comparator agents were as published in CLSI M100-S17 [2007]. Briefly, serial two-fold dilutions of the test compounds were prepared at 2× concentration in Mueller Hinton Broth. The compound dilutions were mixed in 96-well assay plates in a 1:1 ratio with bacterial inoculum. The inoculum was prepared by suspension of a colony from an agar plate that was prepared the previous day. Bacteria were suspended in sterile saline and added to each assay plate to obtain a final concentration of 5×10^5 CFU/mL. The plates were incubated at 35° C. for 20 hours in ambient air.
(§3) These MIC assays were conducted following the same protocol as set forth in Example 110. As shown, substituted sisomicin derivatives with groups other than methyl at the 6′-position have improved activity against strains expressing the AAC6′-modifying enzymes.

[3] = system: E. coli AECO040, AAC(6′)-I; test: MIC, aminoglycoside resistant strain; details: Table 3
Protocol: as §2, §3

[4] = system: A. calcoaceticus AACA005, AAC(6′)-I; test: MIC, aminoglycoside resistant strain; details: Table 3
Protocol: as §2, §3

[5] = system: P. aeruginosa ATCC 27853 (APAE001); test: MIC, CLSI broth microdilution; details: Pseudomonas aeruginosa
How it was run: as §1

[6] = ATCC27853, read-out: MIC APAE001, Table 1, APAE001 is ATCC27853
[7] = ATCC25922, read-out: MIC AECO001, Table 1, AECO001 is ATCC25922

CN[C@@H]1C(O)[C@@H](O[C@@H]2[C@@H](O)[C@H](OC3OC(CN)=CC[C@H]3N)[C@@H](N)C[C@H]2NC(=O)[C@@H](O)CN)OC[C@]1(C)O (some centres unmarked) [Mono-substituted Compound 5, reference compound]
MIC AECO001 ([1]; ATCC25922): 0.5 µg/mL (≈ 0.935 µM)
MIC ASMA003 [2]: 2 µg/mL (≈ 3.74 µM)
MIC AECO040 [3]: 8 µg/mL (≈ 15 µM)
MIC AACA005 [4]: 32 µg/mL (≈ 59.9 µM)

CNCC1=CC[C@@H](N)[C@@H](O[C@H]2C(O)[C@@H](O[C@H]3OC[C@](C)(O)[C@H](NC)[C@H]3O)[C@H](N)C[C@@H]2N)O1 (some centres unmarked) [Mono-substituted Compound 1, reference compound]
MIC AECO001 ([1]; ATCC25922): 1 µg/mL (≈ 2.17 µM)
MIC ASMA003 [2]: 1 µg/mL (≈ 2.17 µM)
MIC AECO040 [3]: > 64 µg/mL
MIC AACA005 [4]: 2 µg/mL (≈ 4.33 µM)

CN[C@@H]1[C@@H](O)[C@@H](O[C@@H]2C(O)[C@H](O[C@H]3OC(CNCC4CC4)=CC[C@H]3N)[C@@H](N)C[C@H]2N)OC[C@]1(C)O (some centres unmarked) [Mono-substituted Compound 2, reference compound]
MIC AECO001 ([1]; ATCC25922): 1 µg/mL (≈ 1.99 µM)
MIC ASMA003 [2]: 0.5 µg/mL (≈ 0.997 µM)
MIC AECO040 [3]: 1 µg/mL (≈ 1.99 µM)
MIC AACA005 [4]: 4 µg/mL (≈ 7.97 µM)

CN[C@@H]1[C@@H](O)[C@@H](O[C@@H]2[C@@H](O)[C@H](O[C@H]3OC(CN)=CC[C@H]3N)[C@@H](N)C[C@H]2N)OC[C@]1(C)O [Sisomicin, reference compound]
MIC AECO001 ([1]; ATCC25922): 0.5 µg/mL (≈ 1.12 µM)
MIC ASMA003 [2]: 8 µg/mL (≈ 17.9 µM)
MIC AECO040 [3]: 32 µg/mL (≈ 71.5 µM)
MIC AACA005 [4]: 32 µg/mL (≈ 71.5 µM)

CN[C@@H]1[C@@H](O)[C@@H](O[C@@H]2C(O)[C@H](O[C@H]3OC(CNCCCN)=CC[C@H]3N)[C@@H](N)C[C@H]2N)OC[C@]1(C)O (some centres unmarked) [Mono-substituted Compound 4, reference compound]
MIC AECO001 ([1]; ATCC25922): 2 µg/mL (≈ 3.96 µM)
MIC ASMA003 [2]: 1 µg/mL (≈ 1.98 µM)
MIC AECO040 [3]: 16 µg/mL (≈ 31.7 µM)
MIC AACA005 [4]: 1 µg/mL (≈ 1.98 µM)

CN[C@@H]1[C@@H](O)[C@@H](O[C@@H]2[C@@H](O)[C@H](O[C@H]3OC(CNCC4CC4)=CC[C@H]3N)[C@@H](N)C[C@H]2NC(=O)C2(O)CCNC2)OC[C@]1(C)O (some centres unmarked) [Example 41]
MIC [5, 6]: 1 to 16 µg/mL (≈ 1.63 to 26 µM)
MIC [1, 7]: < 1 µg/mL

CN[C@@H]1[C@@H](O)[C@@H](O[C@@H]2[C@@H](O)[C@H](O[C@H]3OC(CNCC(O)CCCN)=CC[C@H]3N)[C@@H](N)C[C@H]2NC(=O)[C@@H](O)CCN)OC[C@]1(C)O (stereo partly drawn) [Example 32, 6′-(2-Hydroxy-5-amino-pentyl)-1-(4-amino-2(S)-hydroxy-butyryl)-sisomicin]
MIC [5, 6]: 1 to 16 µg/mL (≈ 1.54 to 24.6 µM)
MIC [1, 7]: < 1 µg/mL

CN[C@@H]1[C@@H](O)[C@@H](O[C@@H]2[C@@H](O)[C@H](O[C@H]3OC(CNCCCN)=CC[C@H]3N)[C@@H](N)C[C@H]2NC(=O)C2(O)CNC2)OC[C@]1(C)O [Example 57]
MIC ([5]; ATCC27853, Table 2, read-out: MIC P. aeruginosa): < 1 µg/mL
MIC ([1]; ATCC25922, Table 2, read-out: MIC E. coli): < 1 µg/mL
MIC ([1]; Table 1, AECO001 is ATCC25922, read-out: MIC AECO001): < 1 µg/mL

CN[C@@H]1[C@@H](O)[C@@H](O[C@@H]2[C@@H](O)[C@H](O[C@H]3OC(CNC[C@H](O)CO)=CC[C@H]3N)[C@@H](N)C[C@H]2NC(=O)[C@@H](O)CCN)OC[C@]1(C)O [Example 28, 6′-(2(S)-Hydroxy-propanol)-1-(4-amino-2(S)-hydroxy-butyryl)-sisomicin]
MIC [5, 6]: 1 to 16 µg/mL (≈ 1.61 to 25.7 µM)
MIC [1, 7]: 1 to 16 µg/mL (≈ 1.61 to 25.7 µM)

CN[C@@H]1[C@@H](O)[C@@H](O[C@@H]2[C@@H](O)[C@H](O[C@H]3OC(CNCC(O)CN)=CC[C@H]3N)[C@@H](N)C[C@H]2NC(=O)C(O)C2CNC2)OC[C@]1(C)O (some centres unmarked) [Example 82, 6′-(2-Hydroxy-3-amino-propyl)-1-(2-(azetidin-3-yl)-2-hydroxy-acetyl)-sisomicin]
MIC [5, 6]: > 16 µg/mL
MIC [1, 7]: 1 to 16 µg/mL (≈ 1.58 to 25.2 µM)

CN[C@@H]1[C@@H](O)[C@@H](O[C@@H]2[C@@H](O)[C@H](O[C@H]3OC(CNCC(N)CO)=CC[C@H]3N)[C@@H](N)C[C@H]2NC(=O)[C@@H](O)CCN)OC[C@]1(C)O (stereo partly drawn) [Example 30, 6′-(2-Amino-propanol)-1-(4-amino-2(S)-hydroxy-butyryl)-sisomicin]
MIC [5, 6]: 1 to 16 µg/mL (≈ 1.61 to 25.7 µM)
MIC [1, 7]: < 1 µg/mL

CN[C@@H]1[C@@H](O)[C@@H](O[C@@H]2[C@@H](O)[C@H](O[C@H]3OC(CNCCCN)=CC[C@H]3N)[C@@H](N)C[C@H]2NC(=O)[C@H](O)CCN)OC[C@]1(C)O [Example 6, 6′-(3-Amino-propyl)-1-(4-amino-2(R)-hydroxy-butyryl)-sisomicin]
MIC [5, 6]: 1 to 16 µg/mL (≈ 1.65 to 26.4 µM)
MIC [1, 7]: 1 to 16 µg/mL (≈ 1.65 to 26.4 µM)
